Test results published in US20120238603A1, “TREATMENT FOR INFLAMMATORY BOWEL DISEASE” (SANOFI, priority 2009, published 2012).
pKi: −log10 of the molar value. Where two headings read alike, the source gives them in different places.

Assays:
[1] = test system: TNBS-induced ulcerative colitis; assay: Murine TNBS-induced ulcerative colitis; format: in vivo, male balb/mice; details: for % protective effect vs. TNBS alone: Body wt d 4 (% Δ719-% ΔTNBS)/(% Δ Ctl-% ΔTNBS): oral once daily; for % protective effect vs. TNBS alone: Body wt d 4 (% Δ719-% ΔTNBS)/(% Δ Ctl-% ΔTNBS) / % protective effect vs. TNBS alone: Colon wt/length (TNBS-719)/(TNBS-ctl) / % protective effect vs. TNBS alone: Diarrhea / % protective effect vs. TNBS alone: Dilation / % protective effect vs. TNBS alone: MPO / % protective effect vs. TNBS alone: Macroscopic Score / % protective effect vs. TNBS alone: Tissue TNFα / % protective effect vs. TNBS alone: Ulceration: day 4
Procedure: The effect of the compound of Formula I in murine TNBS-induced ulcerative colitis. TNBS (Trinitro benzene sulfonic acid) is known to induce colitis in some strains of mice and rats by haptenating colonic proteins, resulting in an immune response. This model resembles multiple features, both histologic and immunologic, of human IBD (particularly Crohn's disease).
In some experiments, male balb/mice were pre-sensitized with 1% TNBS administered epicutaneously on day −7. On Day 0, TBNS (2.5 mg/100 mcl) in 35% ethanol or 100 mg/kg TNBS in 50% ethanol, was administered intrarectally, and colitis-relevant readouts were measured 4 days later. The compound of Formula I as hydrochloride salt or as fumarate salt was administered orally in 1% carboxymethylcellulose-Tween. Sulfazalazine was given at 100 mg/kg. Both compounds were given once daily.
• 0 No damage • 1 Hyperemia without ulcers • 2 Hyperemia and bowel wall thickening without ulcers • 3 One site of ulceration without bowel wall thickening • 4 Two or more sites of ulceration/inflammation • 5 0.5 cm inflammation and major damage • 6-10 1 cm or more of major damage (0.5 cm=1 point) • 0/1 Diarrhea +/− • 0/1/2 No dilatation/partial dilatation/dilatation in the whole length

TNBS-induced colitis = details: rat; intra-colonic injections of NM 10-9, 10-11 and 10-13 M daily for 6 days; compared with 5-ASA 25 mg/Kg; cited from earlier work
b-tryptase = b-tryptase (Homo sapiens, UniProt P20231); details: reported selective b-tryptase inhibitor at low doses; cited from earlier work
mild to moderate UC = details: cited from earlier work
human beta-tryptase = human beta-tryptase (Homo sapiens, UniProt P20231); assay: Inhibition of recombinant human beta-tryptase (Ki); format: biochemical; details: recombinant enzyme
[2] = biological target: T1, mouse MCPT-6 (mouse orthologue of human beta-tryptase) (Mus musculus, UniProt P21845); assay: Inhibition of recombinant mouse MCPT-6 (Ki); format: biochemical; details: recombinant enzyme
T1 sequence (P21845 32-276): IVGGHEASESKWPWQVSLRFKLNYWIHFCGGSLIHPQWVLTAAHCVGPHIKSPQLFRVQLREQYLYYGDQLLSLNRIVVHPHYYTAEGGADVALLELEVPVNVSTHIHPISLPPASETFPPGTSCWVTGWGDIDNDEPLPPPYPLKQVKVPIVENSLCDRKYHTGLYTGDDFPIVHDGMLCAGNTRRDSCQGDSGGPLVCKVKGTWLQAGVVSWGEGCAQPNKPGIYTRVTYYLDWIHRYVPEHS

[3] = first Formula I / sulfazalazine column pair, sulfazalazine 100 mg/kg
[4] = second Formula I / sulfazalazine column pair, sulfazalazine 100 mg/kg

Chain of b-tryptase (P20231 31-275): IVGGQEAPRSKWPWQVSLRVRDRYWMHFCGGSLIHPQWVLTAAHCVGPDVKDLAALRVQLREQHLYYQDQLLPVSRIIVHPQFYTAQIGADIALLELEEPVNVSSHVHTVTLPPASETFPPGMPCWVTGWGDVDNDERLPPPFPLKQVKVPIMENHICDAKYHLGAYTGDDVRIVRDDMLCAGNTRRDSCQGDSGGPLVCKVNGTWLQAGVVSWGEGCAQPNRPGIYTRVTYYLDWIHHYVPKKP
Chain of human beta-tryptase (P20231 31-275): as above

Compound | % protective effect vs. TNBS alone: Body wt d 4 (% Δ719-% ΔTNBS)/(% Δ Ctl-% ΔTNBS) [1, 3] [%] | % protective effect vs. TNBS alone: Colon wt/length (TNBS-719)/(TNBS-ctl) [1, 3] [%] | % protective effect vs. TNBS alone: Diarrhea [1, 3] [%] | % protective effect vs. TNBS alone: Dilation [1, 3] [%] | % protective effect vs. TNBS alone: MPO [1, 3] [%] | % protective effect vs. TNBS alone: Macroscopic Score [1, 3] [%] | % protective effect vs. TNBS alone: Tissue TNFα [1, 3] [%] | % protective effect vs. TNBS alone: Ulceration [1, 3] [%] | % protective effect vs. TNBS alone: Body wt d 4 (% Δ719-% ΔTNBS)/(% Δ Ctl-% ΔTNBS) [1, 4] [%] | % protective effect vs. TNBS alone: Colon wt/length (TNBS-719)/(TNBS-ctl) [1, 4] [%] | % protective effect vs. TNBS alone: Diarrhea [1, 4] [%] | % protective effect vs. TNBS alone: Dilation [1, 4] [%] | % protective effect vs. TNBS alone: MPO [1, 4] [%] | % protective effect vs. TNBS alone: Macroscopic Score [1, 4] [%] | % protective effect vs. TNBS alone: Ulceration [1, 4] [%] | other results
O=C(O)c1cc(/N=N/c2ccc(S(=O)(=O)Nc3ccccn3)cc2)ccc1O [sulfazalazine, reference compound] | 46 | 29 | 50 | 33 | 44 | 51 | 50 | 53 | 10 | 23 | 43 | 8 | 21 | 14 | 11 | –
N=C(N)c1ccc2cc(OC(=O)c3ccc(N=C(N)N)cc3)ccc2c1 [Nafamostat mesilate] | – | – | – | – | – | – | – | – | – | – | – | – | – | – | – | colonic mucosal inflammation (TNBS-induced colitis): significantly attenuated; pKi (b-tryptase): 10.02
NC(N)=Nc1ccc(CN2CCN(C(=O)O[C@@H]3CO[C@H]4[C@@H]3OC[C@H]4OC(=O)N3CCN(Cc4ccc(N=C(N)N)cc4)CC3)CC2)cc1 [APC-2059] | – | – | – | – | – | – | – | – | – | – | – | – | – | – | – | safety and tolerability (mild to moderate UC; 20 mg, SC, BID for 28 days on background of oral 5-ASA): safe and well tolerated; patients meeting remission criteria (DAI=0) (mild to moderate UC; 20 mg, SC, BID, 28 days, 5/56): 9%; patients meeting primary EP as responded (DAI≦3) (mild to moderate UC; 20 mg, SC, BID, 28 days, 16/56): 29%; patients meeting improved criteria (DAI≦3 or decreased by 4 points from baseline) (mild to moderate UC; 20 mg, SC, BID, 28 days, 27/56): 49%; response rate, post hoc (mild to moderate UC; baseline DAI score 7-9, 6/33): 18%; response rate, post hoc (mild to moderate UC; baseline DAI scores 6-7, 10/22): 45%; response, post hoc (mild to moderate UC; one patient, baseline DAI=11): did not respond
COCCn1cc(C(=O)N2CCC(c3cc(CN)ccc3F)CC2)c2c(OC(F)(F)F)ccc(F)c21 [Formula I, [4-(5-Aminomethyl-2-fluorophenyl)piperidine-1-yl][7-fluoro-1-(2-methoxyethyl)-4-trifluoromethoxy-1H-indol-3-yl]methanone] | 20 | 41 | 50 | 55 | 13 | 51 | 50 | 50 | 27 | 23 | 57 | 33 | 19 | 30 | 21 | pKi (human beta-tryptase): 7.42; % protective effect vs. TNBS alone: Colon wt/length (TNBS-719)/(TNBS-ctl) ([1]; Formula I 3 mpk): −10%; % protective effect vs. TNBS alone: Diarrhea ([1]; Formula I 3 mpk): 50%; % protective effect vs. TNBS alone: Dilation ([1]; Formula I 3 mpk): 25%; % protective effect vs. TNBS alone: MPO ([1]; Formula I 3 mpk): 0%; % protective effect vs. TNBS alone: Macroscopic Score ([1]; Formula I 3 mpk): 25%; % protective effect vs. TNBS alone: Ulceration ([1]; Formula I 3 mpk): 23%; % protective effect vs. TNBS alone: Colon wt/length (TNBS-719)/(TNBS-ctl) ([1]; Formula I 10 mpk): 16%; % protective effect vs. TNBS alone: Diarrhea ([1]; Formula I 10 mpk): 50%; % protective effect vs. TNBS alone: Dilation ([1]; Formula I 10 mpk): 38%; % protective effect vs. TNBS alone: MPO ([1]; Formula I 10 mpk): 0%; % protective effect vs. TNBS alone: Macroscopic Score ([1]; Formula I 10 mpk): 27%; % protective effect vs. TNBS alone: Ulceration ([1]; Formula I 10 mpk): 25%; decrease of macroscopic damage ([1]; doses ranging from 3-30 mg/kg, oral, once daily, hydrochloride or fumarate salt): 20-50%; protective effects in multiple aspects of experimental colitis ([1]; oral, once daily, versus sulfazalazine positive control): compared well with the sulfazalazine positive control; pKi [2]: 6.04
